Reference: patent EP2697230B1, “COMPOUNDS FOR THE TREATMENT OF HEPATITIS C” (priority 2011, dated 2012)
Read-outs that look alike come from different tables or passages of the source.

System: HCV pseudoparticles, genotype 1a HCV E1 and E2 envelope (H77C isolate)
Assay: HCV pseudoparticle infection assay (luciferase reporter, Huh7 cells)
Assay type: cell-based
[1] = class symbol, HCV pseudoparticles genotype 1a (H77C), luciferase 2 days after infection, read-out: EC50 (nM) 1a (H77C)
[2] = numeric value, HCV pseudoparticles genotype 1a (H77C), luciferase 2 days after infection, read-out: EC50 (nM) 1a (H77C)
[3] = Hepatitis C virus, Huh-7, 48 h, read-out: EC50 (nM) 1a (H77C), class symbol, HCV pseudoparticles genotype 1a (H77C), luciferase 2 days after infection
[4] = Hepatitis C virus, Huh-7, 48 h, read-out: EC50 (nM) 1a (H77C), numeric value, HCV pseudoparticles genotype 1a (H77C), luciferase 2 days after infection

Row | SMILES | EC50 [3] [nM] | also measured
1 | O=C1NCCCOCCCCOCCCNc2nc(nc(OCC(F)(F)F)n2)Nc2ccc1cc2 [Example 0004] | – | EC50 [1]: 0.1 to 100 nM; EC50 [2]: 48.4 nM
2 | COC(=O)N1CCCCOc2ccc(cc2)CNc2nc(nc(OCC(F)(F)F)n2)Nc2ccc(cc2)C(=O)NCCC1 [Example 4023] | 0.1 to 100 | –
3 | O=C1CCCCCCCCC(=O)NCc2cccc(c2)CNc2nc(nc(OCC(F)(F)F)n2)Nc2ccc(cc2)CN1 [Example 0065] | 100 to 1000 | –
4 | CC1(C)CNC(=O)c2ccc(cc2)Nc2nc(nc(OCC(F)(F)F)n2)NCc2ccc(cc2)OCCCN(C(=O)NC(C)(C)C)C1 [Example 6031] | 0.1 to 100 | –
5 | CC(C)NC(=O)N1CCCCOc2ccc(cc2)CNc2nc(nc(OCC(F)(F)F)n2)Nc2ccc(cc2)C(=O)NCCC1 [Example 4032] | 0.1 to 100 | –
6 | O=C1NCCCCCCNC(=O)NCc2cccc(c2)CNc2nc(nc(OCC(F)(F)F)n2)Nc2ccc(cc2)CN1 [Example 0056] | 100 to 1000 | –
7 | O=C1NCc2ccc(cc2)Nc2nc(nc(OCC(F)(F)F)n2)NCc2cccc(c2)CNC(=O)Nc2cccc(c2)N1 [Example 0052] | 100 to 1000 | –
8 | CNC(=O)N1CCCOc2ccc(cc2)CNc2nc(nc(OCC(F)(F)F)n2)Nc2ccc(cc2)C(=O)NCC(C)(C)C1 [Example 6038] | 0.1 to 100 | –
9 | CNC(=O)N1CCCCOc2ccc(cc2)CNc2nc(nc(OCC(F)(F)F)n2)Nc2ccc(cc2)C(=O)NCCC1 [Example 4030] | 0.1 to 100 | –
10 | CN1CCNC(=O)c2ccc(cc2)CNc2nc(nc(OCC(F)(F)F)n2)Nc2ccc(cc2)C(=O)NCC1 [Example 0042] | 100 to 1000 | –
11 | O=C1NCCCNCCCCCCCCNc2nc(nc(OCC(F)(F)F)n2)Nc2ccc1cc2 [Example 9001] | – | EC50 [1]: 100 to 1000 nM; EC50 [2]: 243 nM
12 | O=C1NCCCNCCCOc2ccc(cc2)C2(CC2)Nc2nc(nc(OCC(F)(F)F)n2)Nc2ccc1cc2 [Example 5001] | – | EC50 [1]: 0.1 to 100 nM
13 | CC(C)(C)NC(=O)N1CCCCNC(=O)c2ccc(cc2)Nc2nc(nc(OCC(F)(F)F)n2)NCc2ccc(cc2)OCCC1 [Example 6023] | 0.1 to 100 | –
14 | CCNC(=O)N1CCCCOc2ccc(cc2)CNc2nc(nc(OCC(F)(F)F)n2)Nc2ccc(cc2)C(=O)NCCC1 [Example 4031] | 0.1 to 100 | –
15 | CN1CCCNC(=O)c2ccc(cc2)Nc2nc(nc(OCC(F)(F)F)n2)NCc2ccc(cc2)OCCC1 [Example 6018] | 0.1 to 100 | –
16 | CCCOC(=O)N1CCCCCCCCNc2nc(nc(OCC(F)(F)F)n2)Nc2ccc(cc2)C(=O)NCCC1 [Example 9004] | 0.1 to 100 | –
17 | CC1(C)NC(=O)NCc2ccc(cc2)CNc2nc(nc(OCC(F)(F)F)n2)Nc2ccc(cc2)CNC(=O)NC(C)(C)c2cccc1c2 [Example 0057] | 100 to 1000 | –
18 | CN1CCCN(C)CCCN(C)C(=O)c2ccc(cc2)Nc2nc(nc(OCC(F)(F)F)n2)NCc2ccc(cc2)C(=O)N(C)CCC1 [Example 0041] | 1000 to 5000 | EC50 [4]: 21600 nM
19 | CCNC(=O)N1CCCCNC(=O)c2ccc(cc2)Nc2nc(nc(OCC(F)(F)F)n2)NCc2ccc(cc2)OCC1 [Example 4007] | 0.1 to 100 | –
20 | CC(C)C(=O)N1CCCCNC(=O)c2ccc(cc2)Nc2nc(nc(OCC(F)(F)F)n2)NCc2ccc(cc2)OCC1 [Example 4004] | 0.1 to 100 | –
21 | O=C1NCc2ccc(cc2)Nc2nc(nc(OCC(F)(F)F)n2)NCc2cccc(c2)CNC(=O)OCCOCCOCCO1 [Example 0068] | 100 to 1000 | –
22 | CNC(=O)N1CCCCNC(=O)c2ccc(cc2)Nc2nc(nc(OCC(F)(F)F)n2)NCc2ccc(cc2)OCC1 [Example 4006] | 0.1 to 100 | –
23 | CCN1CCCOc2ccc(cc2)CNc2nc(nc(OCC(F)(F)F)n2)Nc2ccc(cc2)C(=O)NCC(C)(C)C1 [Example 6041] | 0.1 to 100 | –
24 | CC(C)(C)C(=O)N1CCCCNC(=O)c2ccc(cc2)Nc2nc(nc(OCC(F)(F)F)n2)NCc2ccc(cc2)OCC1 [Example 4005] | 0.1 to 100 | –

Row | SMILES | EC50 [3] [nM] | also measured
25 | CC(C)OC(=O)N1CCCOc2ccc(cc2)CNc2nc(nc(OCC(F)(F)F)n2)Nc2ccc(cc2)C(=O)NCC(C)(C)C1 [Example 6035] | 0.1 to 100 | –
26 | CCN(CC)CCN1CCNC(=O)c2ccc(cc2)CNc2nc(nc(OCC(F)(F)F)n2)Nc2ccc(cc2)C1=O [Example 0035] | 1000 to 5000 | –
27 | CC1(C)NC(=O)NCc2ccc(cc2)Nc2nc(nc(OCC(F)(F)F)n2)NCc2cccc(c2)CNC(=O)NC(C)(C)c2cccc1c2 [Example 0058] | 100 to 1000 | –
28 | O=C1CNC(=O)CNC(=O)c2ccc(cc2)Nc2nc(nc(OCC(F)(F)F)n2)NCc2ccc(cc2)NC(=O)CN1 [Example 3003] | 100 to 1000 | –
29 | CNC(=O)N1CCCCNC(=O)c2ccc(cc2)Nc2nc(nc(OCC(F)(F)F)n2)NCc2ccc(cc2)OCCC1 [Example 6021] | 0.1 to 100 | –
30 | O=C1CNC(=O)c2ccc(cc2)Nc2nc(nc(OCC(F)(F)F)n2)NCc2ccc(cc2)NC(=O)CN1 [Example 3002] | 100 to 1000 | –
31 | O=C1NC2CNCC2C(=O)NCCCCCCOc2ccc(cc2)CNc2nc(nc(OCC(F)(F)F)n2)Nc2ccc1cc2 (centres unmarked) [Example 0007] | – | EC50 [1]: 0.1 to 100 nM; EC50 [2]: 8.31 nM
32 | O=C1CNC(=O)c2ccc(cc2)Nc2nc(nc(OCC(F)(F)F)n2)NCc2ccc(cc2)OCC=CCS(=O)(=O)N1 [Example 3007] | 100 to 1000 | EC50 [4]: 557 nM
33 | CN1CCCNC(=O)c2ccc(cc2)Nc2nc(nc(OCC(F)(F)F)n2)Nc2ccc(cc2)C(=O)NCCC1 [Example 0022] | 100 to 1000 | –
34 | O=C1NCCNCCNc2nc(nc(OCC(F)(F)F)n2)Nc2ccc1cc2 [Example 0001] | – | EC50 [1]: 1000 to 5000 nM; EC50 [2]: 4200 nM
35 | O=C1NCc2ccc(cc2)CNc2nc(nc(OCC(F)(F)F)n2)Nc2ccc(cc2)CNC(=O)Nc2cccc(c2)N1 [Example 0051] | 100 to 1000 | –
36 | CCN1CCCNC(=O)c2ccc(cc2)Nc2nc(nc(OCC(F)(F)F)n2)NCc2ccc(cc2)OCCC1 [Example 6026] | 0.1 to 100 | –
37 | O=C1NCc2ccc(cc2)Nc2nc(nc(OCC(F)(F)F)n2)NCc2cccc(c2)CNC(=O)c2ccccc21 [Example 0059] | 0.1 to 100 | –
38 | O=C1CCCNC(=O)c2ccc(cc2)Nc2nc(nc(OCC(F)(F)F)n2)NCc2ccc(cc2)OCC=CCS(=O)(=O)N1 [Example 3010] | 0.1 to 100 | EC50 [4]: 20.3 nM
39 | O=C1NCc2ccc(cc2)Nc2nc(nc(OCC(F)(F)F)n2)NCc2cccc(c2)CNC(=O)NC2CCC(CC2)CC2CCC(CC2)N1 [Example 0054] | 1000 to 5000 | EC50 [4]: 5210 nM
40 | CCCCN1CCCNC(=O)c2ccc(cc2)Nc2nc(nc(OCC(F)(F)F)n2)NCc2ccc(cc2)OCCC1 [Example 6019] | 0.1 to 100 | –
41 | O=C1CCCCCCC(=O)NCc2ccc(cc2)Nc2nc(nc(OCC(F)(F)F)n2)NCc2ccc(cc2)CN1 [Example 0063] | 100 to 1000 | –
42 | CC1(C)CNC(=O)c2ccc(cc2)Nc2nc(nc(OCC(F)(F)F)n2)NCc2ccc(cc2)OCCCN(C(=O)OC(C)(C)C)C1 [Example 6036] | 0.1 to 100 | –
43 | CCCOC(=O)N1CCCNC(=O)c2ccc(cc2)Nc2nc(nc(OCC(F)(F)F)n2)NCc2ccc(cc2)OCCC1 [Example 6016] | 0.1 to 100 | –
44 | O=C1NCCCNCCCOc2ccc(cc2)CNc2nc(nc(OCC(F)(F)F)n2)Nc2ccc1cc2 [Example 6011] | 0.1 to 100 | –
45 | O=C1NCCCN2CCN(CCCNC(=O)c3ccc(cc3)Nc3nc(nc(OCC(F)(F)F)n3)NCc3ccc1cc3)CC2 [Example 0039] | 100 to 1000 | –
46 | CC(=O)N1CCCCCCCCNc2nc(nc(OCC(F)(F)F)n2)Nc2ccc(cc2)C(=O)NCCC1 [Example 9009] | 0.1 to 100 | –
47 | CC(=O)N1CCCCOc2ccc(cc2)CNc2nc(nc(OCC(F)(F)F)n2)Nc2ccc(cc2)C(=O)NCCC1 [Example 4018] | 0.1 to 100 | –
48 | COC(=O)N1CCCCNC(=O)c2ccc(cc2)Nc2nc(nc(OCC(F)(F)F)n2)NCc2ccc(cc2)OCC1 [Example 4013] | 0.1 to 100 | –
